Assays:
[1] = Drug-drug interaction study: bardoxolone methyl alone and with itraconazole in healthy volunteers; details: for AUC extra %, GM / AUC extra %, Mean / CL/F, GM / CL/F, Mean / λz, GM / λz, Mean / AUC(0-t) / AUC(0-inf) / Cmax / half-life / Vd/F / Tmax: plasma; for AUC(0-t) / AUC(0-inf) / Cmax / half-life / Vd/F / Tmax: human; for AUC(0-t): AUC0-t; for AUC(0-inf): AUC0-∞; for Vd/F: Vz/F
[2] = human, in vivo, po
[3] = BEAM (402-C-0804) phase 2b study, crystalline formulation; format: in vivo, human
[4] = Period 1: single oral 10 mg bardoxolone methyl alone, fasted, n = 16
[5] = Period 2: single 10 mg bardoxolone methyl with daily 200 mg itraconazole, n = 15
[6] = bardoxolone methyl alone (Period 1)
[7] = oral, 10 mg, Geom. Mean, Bardoxolone Methyl Alone (A), paired analysis n = 15
[8] = oral, GM, Period 2: single 10 mg bardoxolone methyl with daily 200 mg itraconazole, n = 15
[9] = oral, Geom. Mean, Bardoxolone Methyl + Itraconazole (B), paired analysis n = 15
[10] = oral, Mean, Period 2: single 10 mg bardoxolone methyl with daily 200 mg itraconazole, n = 15
[11] = po, 10 mg, GM, Period 1: single oral 10 mg bardoxolone methyl alone, fasted, n = 16
[12] = po, 10 mg, Mean, Period 1: single oral 10 mg bardoxolone methyl alone, fasted, n = 16
[13] = Crystalline 25 mg QD 52 weeks, N = 57
[14] = Crystalline 75 mg QD 52 weeks, N = 57
[15] = Crystalline 150 mg QD 52 weeks, N = 56

SMILES: COC(=O)[C@]12CCC(C)(C)C[C@H]1[C@H]1C(=O)C=C3[C@@]4(C)C=C(C#N)C(=O)C(C)(C)[C@@H]4CC[C@@]3(C)[C@]1(C)CC2 [Bardoxolone methyl, methyl-2-cyano-3,12-dioxooleana-1,9-dien-28-oic acid]
- Tolerability of concomitant administration with itraconazole ([1]; 10 mg + itraconazole 200 mg): generally safe and well tolerated
- Clearance (GM CL/F) ([1]; 10 mg single dose + itraconazole 200 mg daily): 41.6 L/h
- Clearance (GM CL/F) ([1]; 10 mg single dose, alone): 359 L/h
- Increase in exposure in the presence of itraconazole ([1]; 10 mg single dose, itraconazole 200 mg daily): > 5 fold
- AUC extra %, GM [1, 4]: 5.81%
- AUC extra %, Mean [1, 4]: 6.10%
- CL/F, GM [1, 4]: 359 L/h
- CL/F, Mean [1, 4]: 402 L/h
- λz, GM [1, 4]: 0.0370 h⁻¹
- λz, Mean [1, 4]: 0.0392 h⁻¹
- AUC extra %, GM [1, 5]: 7.64%
- AUC extra %, Mean [1, 5]: 8.47%
- CL/F, GM [1, 5]: 41.6 L/h
- CL/F, Mean [1, 5]: 42.8 L/h
- λz, GM [1, 5]: 0.0074 h⁻¹
- λz, Mean [1, 5]: 0.00762 h⁻¹
- Subjects with a TEAE, n (%) [1, 6]: 3 (18.8%)
- Subjects with study drug-related TEAEs (diarrhea, nausea, headache), n (%) [1, 6]: 1 (6.3%)
- Subjects with a TEAE, n (%) ([1]; concomitant bardoxolone methyl and itraconazole (Period 2)): 1 (6.7%)
- AUC(0-t) [1, 7]: 25.8 ng·h/mL
- AUC(0-inf) [1, 7]: 27.6 ng·h/mL
- Cmax [1, 7]: 2.41 ng/mL
- half-life ([1]; oral, 10 mg, Mean t1/2, 10 mg single dose, alone): 19.8 h
- AUC(0-t) [1, 8]: 220 ng·h/mL
- AUC(0-t) [1, 9]: 220 ng·h/mL
- AUC(0-t) [1, 10]: 226 ng·h/mL
- AUC(0-inf) [1, 8]: 241 ng·h/mL
- AUC(0-inf) [1, 9]: 241 ng·h/mL
- AUC(0-inf) [1, 10]: 248 ng·h/mL
- Cmax [1, 8]: 16.6 ng/mL
- Cmax [1, 9]: 16.6 ng/mL
- Cmax [1, 10]: 17.3 ng/mL
- half-life ([1]; oral, Mean t1/2, 10 mg single dose + itraconazole 200 mg daily): 95.9 h
- Vd/F [1, 8]: 5620 L
- Vd/F [1, 10]: 5900 L
- Tmax [1, 10]: 3.1 h
- Tmax ([1]; oral, Median, Period 2: single 10 mg bardoxolone methyl with daily 200 mg itraconazole, n = 15): 3 h
- half-life ([1]; oral, t½, Mean, Period 2: single 10 mg bardoxolone methyl with daily 200 mg itraconazole, n = 15): 95.9 h
- half-life ([1]; oral, t½, Median, Period 2: single 10 mg bardoxolone methyl with daily 200 mg itraconazole, n = 15): 97.7 h
- AUC(0-t) [1, 11]: 26.1 ng·h/mL
- AUC(0-t) [1, 12]: 29.3 ng·h/mL
- AUC(0-inf) [1, 11]: 27.8 ng·h/mL
- AUC(0-inf) [1, 12]: 31 ng·h/mL
- Cmax [1, 11]: 2.43 ng/mL
- Cmax [1, 12]: 2.58 ng/mL
- Vd/F [1, 11]: 9700 L
- Vd/F [1, 12]: 10200 L
- Tmax [1, 12]: 2.9 h
- Tmax ([1]; po, 10 mg, Median, Period 1: single oral 10 mg bardoxolone methyl alone, fasted, n = 16): 2.5 h
- half-life ([1]; po, 10 mg, t½, Mean, Period 1: single oral 10 mg bardoxolone methyl alone, fasted, n = 16): 19.8 h
- half-life ([1]; po, 10 mg, t½, Median, Period 1: single oral 10 mg bardoxolone methyl alone, fasted, n = 16): 20.3 h
- Changes in laboratory parameters ([1]; whole study): no clinically relevant mean or individual changes in laboratory parameters
- Deaths, SAEs, adverse events leading to discontinuation ([1]; whole study): No subjects died, had an SAE, or had an adverse event that led to discontinuation of study drug
- Dose dependence of systemic exposure [2]: increased linearly with increasing dose from 20 to 60 mg
- Food effect on total systemic exposure [2]: no appreciable food effect
- Increase in peak plasma levels (Cmax) with food [2]: approximately 71%
- Time of peak plasma concentrations after dose administration [2]: 1 to 6 h
- AE, SOC Card: Cardiac failure congestive, patients n (%) [3, 13]: 2 (4)
- AE, SOC Card: Dyspnoea paroxysmal nocturnal, patients n (%) [3, 13]: 0
- AE, SOC Card: Oedema peripheral, patients n (%) [3, 13]: 4 (7)
- AE, SOC Genrl: Generalised oedema, patients n (%) [3, 13]: 2 (4)
- AE, SOC Genrl: Oedema peripheral, patients n (%) [3, 13]: 11 (19)
- AE, SOC Inv: Ejection fraction decreased, patients n (%) [3, 13]: 1 (2)
- AE, SOC Metab: Fluid overload, patients n (%) [3, 13]: 3 (5)
- AE, SOC Metab: Oedema peripheral, patients n (%) [3, 13]: 3 (5)
- AE, SOC Resp: Dyspnoea exertional, patients n (%) [3, 13]: 1 (2)
- AE, SOC Resp: Dyspnoea, patients n (%) [3, 13]: 2 (4)
- AE, SOC Resp: Orthopnoea, patients n (%) [3, 13]: 0
- AE, SOC Resp: Pulmonary oedema, patients n (%) [3, 13]: 0
- SAE, SOC Card: Cardiac failure congestive, patients n (%) [3, 13]: 2 (4)
- SAE, SOC Genrl: Oedema peripheral, patients n (%) [3, 13]: 0
- SAE, SOC Metab: Fluid overload, patients n (%) [3, 13]: 1 (2)
- SAE, SOC Resp: Dyspnoea, patients n (%) [3, 13]: 0
- SAE, SOC Resp: Pulmonary oedema, patients n (%) [3, 13]: 0
- AE, SOC Card: Cardiac failure congestive, patients n (%) [3, 14]: 3 (5)
- AE, SOC Card: Dyspnoea paroxysmal nocturnal, patients n (%) [3, 14]: 1 (2)
- AE, SOC Card: Oedema peripheral, patients n (%) [3, 14]: 3 (5)
- AE, SOC Genrl: Generalised oedema, patients n (%) [3, 14]: 0
- AE, SOC Genrl: Oedema peripheral, patients n (%) [3, 14]: 10 (18)
- AE, SOC Inv: Ejection fraction decreased, patients n (%) [3, 14]: 0
- AE, SOC Metab: Fluid overload, patients n (%) [3, 14]: 2 (4)
- AE, SOC Metab: Oedema peripheral, patients n (%) [3, 14]: 1 (2)
- AE, SOC Resp: Dyspnoea exertional, patients n (%) [3, 14]: 0
- AE, SOC Resp: Dyspnoea, patients n (%) [3, 14]: 6 (11)
- AE, SOC Resp: Orthopnoea, patients n (%) [3, 14]: 0
- AE, SOC Resp: Pulmonary oedema, patients n (%) [3, 14]: 1 (2)
- SAE, SOC Card: Cardiac failure congestive, patients n (%) [3, 14]: 2 (4)
- SAE, SOC Genrl: Oedema peripheral, patients n (%) [3, 14]: 0
- SAE, SOC Metab: Fluid overload, patients n (%) [3, 14]: 1 (2)
- SAE, SOC Resp: Dyspnoea, patients n (%) [3, 14]: 0
- SAE, SOC Resp: Pulmonary oedema, patients n (%) [3, 14]: 1 (2)
- AE, SOC Card: Cardiac failure congestive, patients n (%) [3, 15]: 3 (5)
- AE, SOC Card: Dyspnoea paroxysmal nocturnal, patients n (%) [3, 15]: 0
- AE, SOC Card: Oedema peripheral, patients n (%) [3, 15]: 4 (7)
- AE, SOC Genrl: Generalised oedema, patients n (%) [3, 15]: 0
- AE, SOC Genrl: Oedema peripheral, patients n (%) [3, 15]: 11 (20)
- AE, SOC Inv: Ejection fraction decreased, patients n (%) [3, 15]: 0
- AE, SOC Metab: Fluid overload, patients n (%) [3, 15]: 0
- AE, SOC Metab: Oedema peripheral, patients n (%) [3, 15]: 3 (5)
- AE, SOC Resp: Dyspnoea exertional, patients n (%) [3, 15]: 3 (5)
- AE, SOC Resp: Dyspnoea, patients n (%) [3, 15]: 4 (7)
- AE, SOC Resp: Orthopnoea, patients n (%) [3, 15]: 0
- AE, SOC Resp: Pulmonary oedema, patients n (%) [3, 15]: 0
- SAE, SOC Card: Cardiac failure congestive, patients n (%) [3, 15]: 2 (4)
- SAE, SOC Genrl: Oedema peripheral, patients n (%) [3, 15]: 1 (2)
- SAE, SOC Metab: Fluid overload, patients n (%) [3, 15]: 0
- SAE, SOC Resp: Dyspnoea, patients n (%) [3, 15]: 0
- SAE, SOC Resp: Pulmonary oedema, patients n (%) [3, 15]: 0
- Blood pressure ([3]; crystalline formulation, titration design): no clear dose-related trend was observed in blood pressure
